From patent publication US5208340A, “Process for producing an aryl-imido-peralkanoic acid by oxidizing the corresponding aryl-imido-alkanoic acid with hydrogen peroxide” (Ausimont S.p.A., priority 1990, dated 1993)

Assay: Solubility of PAC and PAP in halogenated solvents (Table 1)
Type: physicochemical
Conditions: for solubility in the particular halogenated solvents (in words): methylene chloride and trichloromethane
Source text: The novel mechanism results in high conversion and yield under low temperature, low viscosity and internal system temperature control conditions. In addition, a very efficient product recovery can be obtained from the inorganic phase. Of course, the pressure should be such as to keep the system in the liquid phase.

SMILES | Solubility (Dichloromethane, at 14° C.) | Solubility (Dichloromethane, at 25° C., (**) Estimated value) | Solubility (Trichloromethane, at 14° C.) | Solubility (Trichloromethane, at 25° C.) | solubility in the particular halogenated solvents (in words) | Solubility (Dichloromethane, at 25° C.)
O=C(CCCCCN1C(=O)c2ccccc2C1=O)OO [PAP, ε-phthalimidoperhexanoic acid] | 26.3 g per 100 cm^3 of solvent | 35.2 g per 100 cm^3 of solvent | 26.1 g per 100 cm^3 of solvent | 34.9 g per 100 cm^3 of solvent | soluble | –
O=C(O)CCCCCN1C(=O)c2ccccc2C1=O [PAC, ε-phthalimidohexanoic acid] | 51.1 g per 100 cm^3 of solvent | – | 52.3 g per 100 cm^3 of solvent | 67.9 g per 100 cm^3 of solvent | even more soluble | 67.3 g per 100 cm^3 of solvent
